According to article PMC6920794, “Evaluation of Novel Chalcone-Thiosemicarbazones Derivatives as Potential Anti-Leishmania amazonensis Agents and Its HSA Binding Studies” (Biomolecules, 2019):

Experiments:
[1] = constant of substituent 4-X; cited from earlier work
[2] = tested on: murine peritoneal macrophages; experiment: Macrophage cytotoxicity (resazurin); type: cell-based
Method: Peritoneal macrophages from albino laboratory-bred strain (BALB/c) mice were obtained in RPMI 1640 medium at pH 7.2 (Gibco, New York, NY, USA) supplemented with 10% (v/v) heat-inactivated fetal bovine serum, 100 U/mL penicillin and 0.1 mg/mL of streptomycin and distributed (1 × 10^6 macrophages/well) in triplicate in 96-well plates (Falcon Co., Franklin Lakes, USA) and incubated for 1 h in a 5% CO2 atmosphere incubator at 310K. The supernatant was removed, and the compounds were added to the plate at concentrations from 10 µM to 50 µM. Next, the cultures were incubated for 48 h in a CO2 incubator at 310K. After incubation, the supernatant was removed and a resazurin solution (50 µM) was added to each well and incubated at 310K for 4 h. Furthermore, the fluorescence was measured using a wavelength of 560 nm for excitation and 590 nm for detection (Molecular Devices, Silicon Valley, USA). Results were expressed as the percentage of viable cells compared to the control cells treated with the highest DMSO dose used to dissolve the drugs. The 50% cytotoxic concentration (CC50) was calculated using GraphPad Prism 6.0 software (GraphPad Company, San Diego, CA, USA).

[3] = tested on: L. amazonensis promastigotes; experiment: Promastigote assay (MTT); type: cell-based, Leishmania amazonensis; conditions: after 48 h of culture (table title); for IC50: Leishmania amazonensis
Method: Leishmania amazonensis (MHOM/BR/77/LTB0016) were regularly isolated from infected mice and maintained in culture as promastigotes through weekly passages in Schneider’s medium (Sigma Aldrich, St. Louis, MO, USA) supplemented with 10% (v/v) heat-inactivated fetal calf serum, penicillin (100 UI/mL), and streptomycin (100 µg/mL) at 299K. Parasites were maintained until the 10th passage. The Animal Ethics Committee of the Oswaldo Cruz Foundation (license number L026/2015) approved this study.
Promastigotes of L. amazonensis (1 × 10^6 promastigotes/mL) in the 4th day on culture in the conditions described above were incubated with the chalcones serially diluted in culture medium (0.032% v/v DMSO at the highest concentration tested) on a 96-well cell culture plate (TPP™ test plate, Switzerland). The assayed concentrations ranged from 50 to 1.56 µM for all chalcone-thiosemicarbazones (5a–g) and for pentamidine (Sigma Aldrich, St. Louis, MO, USA). […] All compounds were analyzed in at least three experiments performed in triplicate. Pentamidine was used as the reference drug and diluted in the same concentrations used for 5a–g. The vehicle (DMSO) had no effect on the parasites.
The antileishmanial activity was evaluated by adding 22 µL of 3-(4,5-dimethylthiazol-2-yl)-2-5diphenyltetrazolium bromide (MTT) at 5 mg/mL (Sigma Aldrich, St. Louis, MO, USA) to each well. After 2 h, 80 µL of DMSO was added and the optical density was determined at a wavelength of 570 nm in a microplate reader (µQuant Bio-Tek Instruments®, Winooski). The assays were carried out in triplicate in 96-well plates (Costar, New York, USA). The inhibition percentage was estimated by the comparison with the non-treated control. The values for the inhibitory concentration for 50% of the promastigotes (IC50) were calculated by a sigmoidal model.

[4] = tested on: L. amazonensis axenic amastigotes; experiment: Axenic amastigotes assay (resazurin); type: cell-based; conditions: Leishmania amazonensis, 72 h of culture, table title says 48 h
Method: Promastigote forms of L. amazonensis (MHOM/BR/77/LTB0016) were grown to a stationary phase, washed once in phosphate buffer solution (PBS) (pH = 7.4) and adjusted to 5 × 10^6 parasites/mL in Schneider’s medium, supplemented with 20% fetal bovine solution (FBS) pH = 5.5 and maintained at 305K. After 5 days of cultivation, the rounded forms without free flagella were obtained and, after heat shock, were used in the appropriate assays. To evaluate the activity against axenic amastigotes, the parasites were incubated with increasing concentrations of the prototypes (diluted in DMSO) for 72 h at 305K. These assays were performed in triplicate in 96-well flat bottom plates (Falcon Co, Franklin Lakes, USA). The leishmanicidal activity was evaluated by adding 22 μl of resazurin to each well. After 4 h, the cell viability was measured as described above. Calculation of the IC50 values was determined in relation to the control by a sigmoidal model using GraphPad Prism 6.0 software.

[5] = tested on: L. amazonensis intracellular amastigotes; experiment: Intracellular amastigotes assay in infected macrophages; type: cell-based, Leishmania amazonensis; conditions: for IC50: L. amazonensis-infected murine peritoneal macrophages, 48 h of culture; for Selectivity Index (SI): SI = LD50/IC50 intracellular amastigotes
Method: Peritoneal macrophages were obtained BALB/c mice with cold Roswell Park Memorial Institute (RPMI) 1640 medium (Sigma Aldrich, St. Louis, MO, USA) supplemented as above. The cell suspension was adjusted to 1 × 10^6 macrophage/mL and incubated in a LAB-TEK 8-chamber slide (Nunc, Roskilde, Denmark) at 310K and 5% CO2 for 1 h. Non-adherent cells were removed and stationary-phase L. amazonensis promastigotes were added at a 3:1 parasite/macrophage ratio. The cultures were incubated for a further 4 h, and free parasites were removed. The chambers were washed, and the monolayers were incubated with the compounds for 48 h. Infected macrophages incubated only in the culture medium were used as controls to compare with the infected treated macrophages. […] The cultures were fixed in methanol and stained with the hematological system Instant Prov (Newprov®, Curitiba, Brazil). The slides were examined by light microscopy, and the number of infected macrophages and the mean number of parasites per macrophage were determined in 100 cells counted. The experiments were performed twice in triplicate. The percentage of infected macrophages was calculated by dividing the number of infected macrophages by the total number of macrophages (infected and uninfected) counted on the slides, multiplied by 100. To determine the infection index, the percentage of infected macrophages was multiplied by the mean number of parasites per macrophage. The percentage inhibition of infection was calculated by multiplying the difference between the infection index of the control and the compound by 100 and dividing by the infection index (IF) of the control using the Equation (1):IF = % infected cells × amastigotes number/total number of macrophages(1) The IC50 ± SD (SD: standard deviation) values were obtained by a sigmoidal model using Origin 6.0 with statistical error limits up to 10%. All tests were conducted in duplicate for each concentration, and two independent assays were performed.

[6] = Leishmania amazonensis, Peritoneal macrophage, in Mus musculus, 48 h

Compound | IC50 [3] [µM] | IC50 [4] [µM] | IC50 [5] [µM] | IC50 [5, 6] [µM] | melting point [°C] | Promastigotes IC50 [3] | Hammett constant σp [1] | Hansh constant π (lipophilicity) [1] | Taft constant Es [1] | molecular refractivity MR [1] | Macrophages LD50 ([2]; BALB/c, mouse, 48 h, pH 7.2) [µM] | Selectivity Index (SI) [5] | Macrophages LD50 ([2]; murine peritoneal macrophages, 48 h of culture) [µM] | IC50 ([5]; Leishmania amazonensis, Peritoneal macrophage) [µM]
NC(=S)N/N=C(\C=C\c1ccc(Br)cc1)c1ccccc1 [Compound 5f, (1E,2E)-3-(4′-bromophenyl)-1-phenylprop-2-en-1-one thiosemicarbazone] | 12.5 ± 0.99 | 4.24 ± 1.07 | – | – | – | – | 0.26 | 0.86 | −1.16 | 0.89 | 44.24 ± 4.21 | – | – | –
NC(=S)NN=C(C=Cc1ccc(F)cc1)c1ccccc1 [Compound 5d, (1E,2E)-3-(4′-fluorphenyl)-1-phenylprop-2-en-1-one thiosemicarbazone] | 13.1 ± 1.85 | 5.57 ± 1.15 | > 3.13 | 3.4 to 5.95 | – | – | 0.15 | 0.14 | −0.46 | 0.10 | 35.47 ± 1.38 | – | – | –
NC(=S)N/N=C(\C=C\c1ccc([N+](=O)[O-])cc1)c1ccccc1 [Compound 5g, (1E,2E)-3-(4′-nitrophenyl)-1-phenylprop-2-en-1-one thiosemicarbazone] | – | – | – | – | 188 to 190 | no significant activity | 0.81 | −0.28 | −1.01 | 0.74 | – | – | – | –
N#Cc1ccc(/C=C/C(=N\NC(N)=S)c2ccccc2)cc1 [Compound 5c, (1E,2E)-3-(4′-cyanophenyl)-1-phenylprop-2-en-1-one thiosemicarbazone] | – | – | – | – | 195 to 196 | no significant activity | 0.71 | −0.57 | −0.51 | 0.63 | – | – | – | –
N=C(N)c1ccc(OCCCCCOc2ccc(C(=N)N)cc2)cc1 [Pentamidine, pentamidine, reference compound] | 4.9 ± 0.6 | 12.3 ± 1.17 | – | – | – | – | – | – | – | – | – | 2.32 | 25.85 ± 4.06 | 11.1 ± 1.98

Now from value to compound, other results behind:

IC50 [3] [µM] | IC50 [4] [µM] | IC50 [5] [µM] | IC50 [5, 6] [µM] | melting point [°C] | Promastigotes IC50 [3] | Compound | Hammett constant σp [1] | Hansh constant π (lipophilicity) [1] | Taft constant Es [1] | molecular refractivity MR [1] | Macrophages LD50 ([2]; BALB/c, mouse, 48 h, pH 7.2) [µM] | Selectivity Index (SI) [5] | Macrophages LD50 ([2]; murine peritoneal macrophages, 48 h of culture) [µM] | IC50 ([5]; Leishmania amazonensis, Peritoneal macrophage) [µM]
14.7 ± 0.31 | 6.88 ± 1.09 | – | – | – | – | NC(=S)N/N=C(\C=C\c1ccccc1)c1ccccc1 [Compound 5a, (1E,2E)-3-(phenyl)-1-phenylprop-2-en-1-one thiosemicarbazone] | 0.00 | 0.00 | 0.00 | 0.00 | 40.98 ± 1.12 | – | – | –
14.8 ± 1.92 | 7.08 ± 1.03 | – | 5.95 ± 0.61 | – | – | Cc1ccc(/C=C/C(=N\NC(N)=S)c2ccccc2)cc1 [Compound 5b, (1E,2E)-3-(4′-methylphenyl)-1-phenylprop-2-en-1-one thiosemicarbazone] | −0.14 | 0.56 | −0.25 | 0.57 | 56.35 ± 0.78 | 9.47 | – | –
